# Source: patent publication US12522602B2, “Derivatives having 2,3-dihydro-1H-indene or 2,3-dihydrobenzofuran moiety or pharmaceutically acceptable salt thereof and pharmaceutical compositions comprising the same” (YUHAN CORPORATION, priority 2019, dated 2026)
# Read-outs that look alike come from different tables or passages of the source.
# How the values were obtained:
# [1] = system: GM1 production in Jurkat cells; experiment: cells; type: cell-based
# [2] = molecular target: glucosylceramide synthase (GCS) (Homo sapiens (Human), UniProt Q16739); experiment: Inhibitory activity against GCS (A549 cell lysate enzyme reaction, HPLC fluorescence); type: biochemical; conditions: NBD C6-ceramide and UDP-glucose, 37° C. for 90 minutes
# Description: Ibiglustat, known as a GCS inhibitor, was used as a control.
# After the cells attached to the culture dish were washed with phosphate buffered saline (PBS), the cells were scraped off with a cell scraper and then centrifuged (4000 rpm, 3 min, 4° C.) to collect the cells in a 50 ml tube. The cell pellets were suspended in a lysis buffer (50 mM HEPES, pH 7.3, containing 1× the protease/phosphatase inhibitor cocktail), lysed by sonication, and then the lysate was centrifuged (13000 rpm, 10 min, 4° C.). The obtained supernatant was used for the quantitative analysis of proteins. The amount of proteins was measured using the BCA protein assay kit, using bovine serum albumin as a standard.
# Enzymatic reactions were initiated by sequentially adding the following reaction materials to a 96 deep-well plate. Thereafter, the enzymatic reactions were performed at 37° C. for 90 minutes.
# The enzymatic reactions were stopped by adding 100 μl of chloroform/methanol (2:1, v/v). […] The lower layer (50 μl) was transferred to a new 96 deep-well plate and dried with a reduced concentrator.
Molecule,"IC50 ([1]; Homo sapiens, Jurkat, 72 h) [µM]",IC50 ([1]; read-out: IC50) [µM],IC50 [2] [µM]
"CC1(C)Oc2cc(-c3cccc(OC(F)(F)F)c3)ccc2C1NC(=O)O[C@@H]1CN2CCC1CC2 (stereo partly drawn) [Example 410, (S)-quinuclidin-3-yl (2,2-dimethyl-6-(3-(trifluoromethoxy)phenyl)-2,3-dihydrobenzofuran-3-yl)carbamate]",0.013,–,–
"(S)-quinuclidin-3-yl (2,2-dimethyl-(2,4,5-trifluorophenyl)-2,3-dihydro-1H-inden-1-yl)carbamate [Example 68]",–,0.0918,0.0152
"(S)-quinuclidin-3-yl (6-(3-(2-methoxyethoxy)phenyl)-2,2-dimethyl-2,3-dihydrobenzofuran-3-yl)carbamate [Example 411]",–,0.0793,–
